Results taken from EP2401611B1, “IMPROVED METHODS FOR IDENTIFICATION” (Cambridge Enterprise Limited, priority 2009, dated 2010).
Where two headings read alike, the source gives them in different places.

Key:
[1] = system: THP-1 cells; experiment: MCP-1 induced THP-1 cell migration (Transwell) assay; type: cell-based, human; conditions: for Chemokine-induced THP-1 cell migration assay ("BSCI" target) Max Effect (%): Table 4; for RATIO: Table 4, THP-1 migration ED50 versus insulin suppression ED50
Procedure: Leukocyte migration was measured using the 96-well format micro Transwell^RTM assay system from Neuroprobe (Gaithersburg, MD, USA). In principle, this assay consists of two chambers separated by a porous membrane. The chemoattractant is placed in the lower compartment and the cells are placed in the upper compartment. After incubation for a period at 37°C the cells move towards the chemoattractant, and the number of cells in the lower compartment is proportional to the chemoattractant activity (relative to a series of controls).
The method was performed essentially as previously described (Reckless & Grainger (1999) Biochem. J. 340:803-11).
First, the cell suspension to be placed in the upper compartment was prepared. The THP-1 cells were pelleted by centrifugation (770 x g; 4 mins) and washed with Geys Balanced Salt Solution with 1mg/ml BSA (GBSS + BSA). This wash was then repeated, and the cells re-pelleted before being resuspended in a small volume of GBSS + BSA for counting, for example using a standard haemocytometer.
The volume of GBSS + BSA was then adjusted depending on the number of cells present so that the cells were at final density of 4.45 x 10^6 cells per ml of GBSS + BSA. This ensured that there were 100,000 THP-1 cells in each 25µl of the solution to be placed in the upper chamber of the plate.
The suspension of THP-1 cells at 4.45 x 10^6 cells/ml was divided into three pots. To one pot the BSCI was added at an appropriate final concentration, in an appropriate vehicle (for example (S)- 3-(2',2'-dimethylpropanoylamino)-tetrahydropyridin-2-one was added at 1nM from a stock solution in GBSS). To the second pot, the BSCI was added at the same concentration as in the first pot, but additionally the sstr2 antagonist was also added (for example BIM 23454 [Tulipano et al. (2002) 143:1218-24] or BIM 23627 were added at 66nM final concentration from a stock solution in GBSS). To the third pot, GBSS + BSA plus vehicle as appropriate was added so that the volumes in three pots are equal, acting as a control.
Next, the chemoattractant solution to be placed in the lower compartment was prepared. […]. Note that, as recommended by Frow et al (Med. Res. Rev. 24:276-98) this is the concentration of MCP-1 which induces maximal migration in this system. This solution was divided into three pots, as for the cell suspension. To one pot, the BSCI was added to the same final concentration as was added to the cell suspension, in the second pot the BSCI and the sstr2 antagonist were both added at the same concentration as previously added to the cell suspension, while to the remaining pot GBSS + BSA plus vehicle as appropriate was added so that the volumes in the three pots were equal. Note that the volume of liquid that needs to be added to make the addition of the BSCI and the sstr2 antagonist compounds needs to be taken into account, when establishing the final concentration of MCP-1 in the solution for the lower compartment and the final concentration of cells in the upper compartment.
Once the chemoattractant solutions for the lower wells and cell solutions for the upper chambers were prepared, the migration chamber was assembled. 29 µl of the appropriate chemoattractant solution was placed into the lower well of the chamber. Assays were performed with at least triplicate determinations of each condition. Once all the lower chambers were filled, the porous membrane was applied to the chamber in accordance with the manufacturer's instructions. Finally, 25 µl of the appropriate cell solution was applied to each upper chamber. A plastic lid was placed over the entire apparatus to prevent evaporation.
The assembled chamber was incubated at 37 °C, 5% CO2, for 2 hours. A suspension of cells in GBSS + BSA was also incubated under identical conditions in a tube: these cells were used to construct a standard curve for determining the number of cells that migrated to the lower chamber under each condition. […]

[2] = system: Panc-2H4; experiment: Human Panc-2H4 insulin suppression assay; type: cell-based; conditions: for Panc-2H4 insulin suppression assay ("classical" target) Max Effect (%): Table 4; for EC50: Table 4, 0.01nM to 1,000nM in DMSO vehicle, read-out: Panc-2H4 insulin suppression assay ("classical" target) ED50
Excerpt: (§1) Two different assays for "classical" sstr2 functions were adopted: (1) cultured foetal rat pituitary cells secreted growth hormone which is inhibited by sstr2 agonists in a dose-dependent fashion and (2) selected glucose-sensitive sub-clones of the human Panc-1 cell line secrete insulin which is inhibited by sstr2 agonists in a dose-dependent fashion.
Glucose-sensitive sub-clones of the human Panc-1, a cell line derived from a pleiomorphic epithelioid carcinoma of the exocrine pancreas, were obtained essentially as described by Hamil et al. (2008) Biomed. Sci. Instrum. 44:441-6. Briefly, Panc-1 cells were subcultured in 24 well plates, and the medium was supplemented with an additional 5% glucose. […] The resulting sub-lines were then tested for glucose sensitivity by preparing wells of a 96-well plate (5 x 10^4 cells per well) which were then exposed to cultured medium containing a range of glucose concentrations (low glucose DMEM, DMEM, DMEM + 1% glucose, DMEM ± 2.5% glucose and DMEM + 5% glucose). After 24hrs incubation, the conditioned medium was collected and assayed for insulin secretion by ELISA (Linco; cat# EZHI-14K) in accordance with the manufacturer's instructions. […] Further 96 well plates were prepared using Panc-2H4 (5 x 10^4 cells per well) in DMEM. After 24hrs, the medium was switched to DMEM + 5% glucose containing various test agents at various concentrations (triplicate wells per condition). After a further 24hrs, the conditioned medium was harvested and the concentration of insulin was determined by ELISA as described above.
(§2) Results were reported as the mean ± SD, expressed as the fold change from cells in the presence of vehicle only.

[3] = molecular target: sstr2 (Homo sapiens, UniProt P30874); experiment: [3H]-BN83250 equilibrium binding to THP-1 cells
Procedure: We have investigated the molecular interaction between BSCIs and the sstr2 receptor using conventional equilibrium binding studies employing labelled BSCI ligands.
For the analysis of binding, individual reactions were set up (in triplicate for each condition), with 1x10^6 THP-1 cells in Gey's Balanced Salt Solution, 10nM [^3H]-BN83250 (at 50 Ci/mmol) and various concentrations of (S)-3(2'2'-dimethylpropionoylamino)-tetrahydropyridin-2-one (10pM to 10µM). Excess (100µM) unlabelled BN83250 was used to determine the level of non-specific binding. After 2 hours at 4°C (conditions previously shown to achieve equilibrium binding, and which prevent uptake of the radioligand that would result in an over-estimate of binding) excess label was washed away by centrifugation (3 washes with 5ml of Gey's Balanced Salt Solution) and the bound radioactivity was determined by scintillation counting of the solubilised cell pellet.

[4] = system: fetal rat pituicytes; experiment: Rat pituicyte GH suppression assay; type: cell-based; conditions: Rattus norvegicus
Excerpt: as §1
Methods: Cultures of fetal rat pituicytes were established exactly as previously described (Murray et al. (2004) J. Clin. Endocrinol. Metab. 89:3027-32) by enzymatic dispersion. After 48hrs in low glucose DMEM plus 10% FCS, cells in 48 well plates (5 x 10^4 cells per well) were washed for 4hrs in serum-free DMEM and then incubated with test agents at various concentrations for a further 24hrs in serum-free DMEM. At the end of this period, the conditioned medium was harvested, any cell debris removed by centrifugation and assayed for GH using a commercially available ELISA (Linco; cat# EZRMGH-45K) in accordance with the manufacturer's instructions.
as §2

[5] = system: rat peripheral blood leukocytes; experiment: Rat chemokine-induced PBMC migration assay; type: cell-based
[6] = Table 4, 0.01nM to 1,000nM in DMSO vehicle, read-out: Chemokine-induced THP-1 cell migration assay ("BSCI" target) ED50

Sequence of sstr2 (P30874 whole entry): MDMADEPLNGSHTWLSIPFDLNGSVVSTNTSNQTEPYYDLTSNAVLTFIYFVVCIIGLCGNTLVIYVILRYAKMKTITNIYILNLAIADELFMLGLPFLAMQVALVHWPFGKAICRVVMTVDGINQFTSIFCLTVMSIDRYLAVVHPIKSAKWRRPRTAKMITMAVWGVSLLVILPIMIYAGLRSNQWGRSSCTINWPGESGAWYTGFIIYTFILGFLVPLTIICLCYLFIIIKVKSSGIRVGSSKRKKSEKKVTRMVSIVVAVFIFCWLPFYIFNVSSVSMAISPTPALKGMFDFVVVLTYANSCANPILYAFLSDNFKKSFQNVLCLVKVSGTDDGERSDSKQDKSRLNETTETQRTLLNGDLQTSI

EC50 [1, 6]	EC50 [2]	SMILES	Chemokine-induced THP-1 cell migration assay ("BSCI" target) Max Effect (%) [1]	Panc-2H4 insulin suppression assay ("classical" target) Max Effect (%) [2]	competition with BN83250 binding to sstr2 (in words) [3]	RATIO [1]	other results
> 1000 nM	650 nM	CC(=O)NC(CC(N)=O)C(=O)NC(C(=O)NCC1CCCC(CN)C1)C(C)c1c[nH]c2ccccc12 (mixture of isomers) [D]	<10%	37%	–	–	–
220 nM	167 nM	CC(c1c[nH]c2ccccc12)C(NC(=O)N1CC(=O)NC(=O)C1)C(=O)NCC1CCCC(CN)C1 (centres unmarked) [Compound B]	100%	52%	–	1.3	–
2 nM	82 nM	CC(c1c[nH]c2ccccc12)C(NC(=O)NC1CCCNC1=O)C(=O)NCC1CCCC(CN)C1 (centres unmarked) [Compound C]	100%	56%	–	0.02	–

Second part, the molecule before the results:

SMILES	EC50 [1, 6]	EC50 [2]	Chemokine-induced THP-1 cell migration assay ("BSCI" target) Max Effect (%) [1]	Panc-2H4 insulin suppression assay ("classical" target) Max Effect (%) [2]	competition with BN83250 binding to sstr2 (in words) [3]	RATIO [1]	other results
CC1(C(=O)N[C@H]2CCCCNC2=O)CCCCC1 [(S)-3-(1'-methylcyclohexyl-1'-carbonylamino)-caprolactam]	–	–	–	–	also compete with BN83250 binding to sstr2 to a similar extent	–	–
O=C1NCCCC[C@@H]1NC(=O)C12CC3CC(CC(C3)C1)C2 [BN83470, (S)-3-(admantane-1'-carbonylamino)-caprolactam]	–	–	–	–	also compete with BN83250 binding to sstr2 to a similar extent	–	Emax ([4]; Table 3, percentage suppression compared to vehicle, read-out: Rat pituicyte GH suppression assay Max effect (%)): 56%; EC50 ([4]; Table 3, read-out: Rat pituicyte GH suppression assay ED50): 270 nM; EC50 ([1]; Homo sapiens, THP-1, Table 3, read-out: Human chemokine-induced THP-1 migration assay ED50): 0.08 nM; Emax ([1]; Homo sapiens, THP-1, Table 3, read-out: Human chemokine-induced THP-1 migration assay Max effect (%)): 100%; "Classical" : "BSCI" potency ratio Human ([1]; Table 3, THP-1 migration ED50 versus Panc-2H4 insulin suppression ED50): <0.00008; Emax ([2]; Homo sapiens, Table 3, percentage suppression compared to vehicle, read-out: Human Panc-2H4 insulin suppression assay Max effect (%)): < 10%; EC50 ([5]; Rattus norvegicus, Leukocyte, Table 3, read-out: Rat chemokine-induced PBMC migration assay ED50): 0.22 nM; Emax ([5]; Rattus norvegicus, Leukocyte, Table 3, read-out: Rat chemokine-induced PBMC migration assay Max effect (%)): 100%; "Classical" : "BSCI" potency ratio Rat ([5]; Table 3, rat PBMC migration ED50 versus rat pituicyte GH suppression ED50): 0.0008
CC(c1c[nH]c2ccccc12)C(NC(=O)N1CCC(NC(N)=O)CC1)C(=O)NCC1CCCC(CN)C1 (centres unmarked) [Compound A]	> 1000 nM	–	–	–	–	–	–
